Test results reported in ChEMBL document CHEMBL3585297, “New amide derivatives of Probenecid as selective inhibitors of carbonic anhydrase IX and XII: biological evaluation and molecular modelling studies” (Bioorg Med Chem, 2015).

Legend:
Carbonic anhydrase 1 = Carbonic anhydrase 1 (Homo sapiens, UniProt P00915); experiment: Inhibition of human carbonic anhydrase 1 by stopped-flow CO2 hydrase assay
Carbonic anhydrase 2 = Carbonic anhydrase 2 (Homo sapiens, UniProt P00918); experiment: Inhibition of human carbonic anhydrase 2 by stopped-flow CO2 hydrase assay
Carbonic anhydrase 9 = Carbonic anhydrase 9 (Homo sapiens, UniProt Q16790); experiment: Inhibition of human carbonic anhydrase 9 by stopped-flow CO2 hydrase assay

Sequence of Carbonic anhydrase 1 (P00915 whole entry): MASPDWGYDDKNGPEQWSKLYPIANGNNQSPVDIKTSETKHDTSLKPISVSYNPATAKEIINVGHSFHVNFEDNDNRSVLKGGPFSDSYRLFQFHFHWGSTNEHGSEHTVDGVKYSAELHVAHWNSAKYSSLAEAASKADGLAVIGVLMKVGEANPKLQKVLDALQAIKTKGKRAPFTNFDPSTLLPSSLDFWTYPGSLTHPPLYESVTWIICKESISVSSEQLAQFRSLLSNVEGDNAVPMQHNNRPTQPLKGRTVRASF

Row | Ki (Carbonic anhydrase 1) | Ki (Carbonic anhydrase 2) | Ki (Carbonic anhydrase 9) | SMILES
1 | > 10 µM | > 10 µM | 0.246 µM | CCCN(CCC)S(=O)(=O)c1ccc(C(=O)Nc2ccc([N+](=O)[O-])cc2)cc1
2 | > 10 µM | > 10 µM | 2.02 µM | CCCN(CCC)S(=O)(=O)c1ccc(C(=O)NC2CCC(C)CC2)cc1 (centres undefined)
3 | > 10 µM | > 10 µM | 2.04 µM | CCCN(CCC)S(=O)(=O)c1ccc(C(=O)Nc2ccncc2)cc1
4 | > 10 µM | > 10 µM | 0.213 µM | CCCN(CCC)S(=O)(=O)c1ccc(C(=O)NCCCN2CCOCC2)cc1
5 | > 10 µM | > 10 µM | 0.0236 µM | CCCN(CCC)S(=O)(=O)c1ccc(C(=O)Nc2ccccc2Cl)cc1
6 | > 10 µM | > 10 µM |  | CCCN(CCC)S(=O)(=O)c1ccc(C(=O)NCC)cc1
7 | > 10 µM | > 10 µM | 1.26 µM | CCCN(CCC)S(=O)(=O)c1ccc(C(=O)NCCN2CCCCC2)cc1
8 | > 10 µM | > 10 µM | 0.11 µM | CCCN(CCC)S(=O)(=O)c1ccc(C(=O)NCCN(CC)CC)cc1
9 | > 10 µM | > 10 µM | 0.188 µM | CCCN(CCC)S(=O)(=O)c1ccc(C(=O)NC2CCCC(C)C2)cc1 (centres undefined)

Row | SMILES | Ki (Carbonic anhydrase 1) | Ki (Carbonic anhydrase 2) | Ki (Carbonic anhydrase 9)
10 | CCCN(CCC)S(=O)(=O)c1ccc(C(=O)Nc2ccccn2)cc1 |  | > 10 µM | 0.199 µM
11 | CCCN(CCC)S(=O)(=O)c1ccc(C(=O)Nc2ccccc2C)cc1 | > 10 µM | > 10 µM | 0.0613 µM
12 | CCCN(CCC)S(=O)(=O)c1ccc(C(=O)NCc2ccccc2)cc1 | > 10 µM | > 10 µM | 0.0206 µM
